According to patent US9521846B2, “Template-fixed peptidomimetics with antimicrobial activity” (priority 2006, dated 2016):
≈ marks a conversion by molar mass, not a printed value. Non-standard residues stand in square brackets, D forms with d. Residues, ends and D or L forms follow the SMILES beside them. dDab = NCC[C@@H](N)C(=O)O; Nle = CCCC[C@H](N)C(=O)O; Dab = NCC[C@H](N)C(=O)O; Nva = CCC[C@H](N)C(=O)O

Tests used:
[1] = tested on: human red blood cells (hRBC); test: Hemolysis; assay type: cell-based; conditions: 100
Experimental: Hemolysis of red blood cells is often employed for assessment of toxicity of related compounds such as protegrin or tachyplesin. Values are given as %-lysis of red blood cells observed at a concentration of 100 μg/ml. Typical values determined for cationic peptides such as protegrin and tachyplesin range between 30-40% with average MIC-values of 1-5 μg/ml over a wide range of pathogens.
The peptides were tested for their hemolytic activity against human red blood cells (hRBC). Fresh hRBC were washed three times with phosphate buffered saline (PBS) by centrifugation for 10 min at 2000×g. Peptides at a concentration of 100 μM were incubated with 20% v/v hRBC for 1 hour at 37° C. The final erythrocyte concentration was approximately 0.9×10^9 cells per ml. A value of 0% and, respectively, 100% cell lysis was determined by incubation of the hRBC in the presence of PBS alone and, respectively, 0.1% Triton X-100 in H2O. The samples were centrifuged, the supernatant was 20-fold diluted in PBS buffer and the optical density (OD) of the sample at […] was measured. The 100% lysis value (OD540H20) gave an OD540 of approximately 1.3-1.8. Percent hemolysis was calculated as follows: (OD540peptide/OD540H20)×100%.

P. aeruginosa ATCC 27853 = assay type: cell-based, Pseudomonas aeruginosa; conditions: ATCC 27853
Experimental: (§1) The selective antimicrobial activities of the peptides were determined in 96-well plates (Nunclon polystyrene) by the standard NCCLS broth microdilution method (see ref 1, below) with slight modifications. Innocula of the microorganisms were diluted into Mueller-Hinton (MH) broth+0.02% BSA and compared with a 0.5 Mcfarland standard to give appr. 10^6 colony forming units (CFU)/ml. Aliquots (50 μl) of inoculate were added to 50 μl of MH broth+0.02% BSA containing the peptide in serial two-fold dilutions. The following microorganisms were used to determine antibiotic selectivity of the peptides: Escherichia coli (ATCC 25922), Pseudomonas aeruginosa (P. aeruginosa ATCC 27853, P8191900, P1021903, P1021913, IMP 1 Livermore 3140).

HELA cells (Acc57) = test: Cytotoxicity assay, MTT reduction (LC 50, GI 50); assay type: cell-based
Experimental: The cytotoxicity of the peptides to HELA cells (Acc57) and COS-7 cells (CRL-1651) was determined using the MIT reduction assay [see ref. 2 and 3, below]. Briefly the method was as follows: HELA cells and COS-7 cells were seeded at 7.0×10^3 and, respectively, 4.5×10^3 cells per well and grown in 96-well […] plates for 24 hours at 37° C. at 5% CO2. At this point, time zero (Tz) was determined by MTT reduction (see below). The supernatant of the remaining wells was discarded, and fresh medium and the peptides in serial dilutions of 12.5, 25 and 50 μM were dispensed into the wells. Each peptide concentration was assayed in triplicate. Incubation of the cells was continued for 48 hours at 37° C. at 5% CO2. Wells were then washed once with phosphate buffered saline (PBS) and subsequently 100 μl MIT reagent (0.5 mg/ml in medium RPMI1640 and, respectively, DMEM) were added to the wells. This was incubated at 37° C. for 2 hours and subsequently the medium was aspirated and 100 μl isopropanol were added to each well. The absorbance at 595 nm of the solubilized product was measured (OD595peptide). For each concentration averages were calculated from triplicates. The percentage of growth was calculated as follows: (OD595peptide-OD595Tz-OD595Empty well)/(OD595Tz-OD595Empty well)×100% and was plotted for each peptide concentration.
The LC 50 values (Lethal Concentration, defined as the concentration that kills 50% of the cells) were determined for each peptide by using the trend line function of EXCEL (Microsoft Office 2000) for the concentrations (50, 25, 12.5 and 0 μM), the corresponding growth percentages and the value −50, (=TREND(C50:C0,%50:%0,−50)). The GI 50 (Growth Inhibition) concentrations were calculated for each peptide by using a trend line function for the concentrations (50, 25, 12.5 and 0 […]), the corresponding percentages and the value 50, (=TREND (C50:C0,%50:%0,50).

[2] = tested on: Pseudomonas aeruginosa P1021903; assay type: cell-based; conditions: P1021903
Experimental: as §1

[3] = tested on: Pseudomonas aeruginosa P1021913; assay type: cell-based; conditions: P1021913
Experimental: as §1

[4] = tested on: Pseudomonas aeruginosa P8191900; assay type: cell-based; conditions: P8191900
Experimental: as §1

[5] = tested on: Pseudomonas aeruginosa IMP 1 Livermore 3140; assay type: cell-based; conditions: IMP 1 Livermore 3140
Experimental: as §1

Row | Compound | Hemolysis at 100 μg/ml [1] [%] | MIC P. aeruginosa ATCC 27853 (P. aeruginosa ATCC 27853) [µg/mL] | Average MIC (P. aeruginosa) [µg/mL] | Cytotoxicity GI50 Hela cells (HELA cells (Acc57)) [µM] | MIC P. aeruginosa P1021903 [2] [µg/mL] | MIC P. aeruginosa P1021913 [3] [µg/mL] | MIC P. aeruginosa P8191900 [4] [µg/mL] | MIC P. aeruginosa IMP1 Livermore 3140 [5] [µg/mL]
1 | CCCC[C@@H]1NC(=O)[C@H](Cc2c[nH]c3ccccc23)NC(=O)[C@H]([C@@H](C)O)NC(=O)[C@@H]2CCCN2C(=O)[C@H]2CCCN2C(=O)[C@H](CCN)NC(=O)[C@H](C)NC(=O)[C@H](CCN)NC(=O)[C@H](CCN)NC(=O)[C@H](Cc2c[nH]c3ccccc23)NC(=O)[C@H](CCN)NC(=O)[C@H](CCN)NC(=O)[C@H](CCCCN)NC(=O)[C@H](CCN)NC1=O [Example 31] (cyclo(TW[Nle][Dab]K[Dab][Dab]W[Dab][Dab]A[Dab][dP]P)) | 0.5 | 0.03 (≈ 0.019 µM) | 0.20 | 50 | 0.40 (≈ 0.253 µM) | 0.16 (≈ 0.101 µM) | 0.16 (≈ 0.101 µM) | 0.24 (≈ 0.152 µM)
2 | CCC[C@@H]1NC(=O)[C@H](CCN)NC(=O)[C@H](CCN)NC(=O)[C@H](Cc2c[nH]c3ccccc23)NC(=O)[C@H](CCN)NC(=O)[C@H](CCN)NC(=O)[C@H](CCCCN)NC(=O)[C@H](CCN)NC(=O)[C@H]([C@@H](C)CC)NC(=O)[C@H](Cc2c[nH]c3ccccc23)NC(=O)[C@H]([C@@H](C)O)NC(=O)[C@@H]2CCCN2C(=O)[C@H]2CCCN2C(=O)[C@H](CCN)NC1=O [Example 10] (cyclo(TWI[Dab]K[Dab][Dab]W[Dab][Dab][Nva][Dab][dP]P)) | 0 | 0.05 (≈ 0.0311 µM) | 0.23 | 50 | 0.13 (≈ 0.0808 µM) | 0.37 (≈ 0.23 µM) | 0.18 (≈ 0.112 µM) | 0.43 (≈ 0.267 µM)
3 | CC[C@H](C)[C@@H]1NC(=O)[C@H](Cc2ccc(O)cc2)NC(=O)[C@H](CC(=O)O)NC(=O)[C@@H]2CCCN2C(=O)[C@H]2CCCN2C(=O)[C@H](CCN)NC(=O)[C@H](C)NC(=O)[C@H](CCN)NC(=O)[C@H](CCN)NC(=O)[C@H](Cc2c[nH]c3ccccc23)NC(=O)[C@H](CCN)NC(=O)[C@@H](CCN)NC(=O)[C@H](CCCCN)NC(=O)[C@H](CCN)NC1=O [Example 42] (cyclo(DYI[Dab]K[dDab][Dab]W[Dab][Dab]A[Dab][dP]P)) | 0.2 | 0.25 (≈ 0.159 µM) | 0.29 | 50 | 0.125 (≈ 0.0795 µM) | 0.50 (≈ 0.318 µM) | 0.06 (≈ 0.0382 µM) | 0.50 (≈ 0.318 µM)
4 | CC[C@H](C)[C@@H]1NC(=O)[C@H](Cc2ccc(O)cc2)NC(=O)[C@H]([C@@H](C)O)NC(=O)[C@@H]2CCCN2C(=O)[C@H]2CCCN2C(=O)[C@H](CCN)NC(=O)[C@H](C)NC(=O)[C@H](CCN)NC(=O)[C@H](CCN)NC(=O)[C@H](Cc2c[nH]c3ccccc23)NC(=O)[C@H](CCN)NC(=O)[C@H](CCN)NC(=O)[C@H](CCCCN)NC(=O)[C@H](CCN)NC1=O [Example 19] (cyclo(TYI[Dab]K[Dab][Dab]W[Dab][Dab]A[Dab][dP]P)) | 0.2 | 0.03 (≈ 0.0193 µM) | 0.06 | 50 | 0.03 (≈ 0.0193 µM) | 0.10 (≈ 0.0642 µM) | 0.05 (≈ 0.0321 µM) | 0.10 (≈ 0.0642 µM)
5 | CC[C@H](C)[C@@H]1NC(=O)[C@H](Cc2c[nH]c3ccccc23)NC(=O)[C@H](CCC(=O)O)NC(=O)[C@@H]2CCCN2C(=O)[C@H]2CCCN2C(=O)[C@H](CCC(N)=O)NC(=O)[C@H](C)NC(=O)[C@H](CCN)NC(=O)[C@H](CCN)NC(=O)[C@H](Cc2c[nH]c3ccccc23)NC(=O)[C@H](CCN)NC(=O)[C@@H](CCN)NC(=O)[C@H](CCCCN)NC(=O)[C@H](CCN)NC1=O [Example 45] (cyclo(EWI[Dab]K[dDab][Dab]W[Dab][Dab]AQ[dP]P)) | 0.2 | 0.25 (≈ 0.153 µM) | 0.65 | 50 | 0.50 (≈ 0.305 µM) | 1.00 (≈ 0.611 µM) | 0.50 (≈ 0.305 µM) | 1.00 (≈ 0.611 µM)
6 | CC[C@H](C)[C@@H]1NC(=O)[C@H](Cc2c[nH]c3ccccc23)NC(=O)[C@H]([C@@H](C)O)NC(=O)[C@@H]2CCCN2C(=O)[C@H]2CCCN2C(=O)[C@H](CCN)NC(=O)[C@H](C)NC(=O)[C@H](CCN)NC(=O)[C@H](CCN)NC(=O)[C@H](Cc2c[nH]c3ccccc23)NC(=O)[C@H](CCC(N)=O)NC(=O)[C@H](CCN)NC(=O)[C@H](CCCCN)NC(=O)[C@H](CCN)NC1=O [Example 39] (cyclo(TWI[Dab]K[Dab]QW[Dab][Dab]A[Dab][dP]P)) | 0.4 | 0.13 (≈ 0.0808 µM) | 0.34 | 50 | 0.31 (≈ 0.193 µM) | 0.31 (≈ 0.193 µM) | 0.21 (≈ 0.131 µM) | 0.75 (≈ 0.466 µM)
7 | CC[C@H](C)[C@@H]1NC(=O)[C@H](Cc2c[nH]c3ccccc23)NC(=O)[C@H]([C@@H](C)O)NC(=O)[C@@H]2CCCN2C(=O)[C@H]2CCCN2C(=O)[C@H](CCN)NC(=O)[C@@H](C)NC(=O)[C@H](CCN)NC(=O)[C@H](CCN)NC(=O)[C@H](Cc2c[nH]c3ccccc23)NC(=O)[C@H](CCN)NC(=O)[C@H](CCN)NC(=O)[C@H](CCCCN)NC(=O)[C@H](CCN)NC1=O [Example 3] (cyclo(TWI[Dab]K[Dab][Dab]W[Dab][Dab][dA][Dab][dP]P)) | 0.6 | 0.09 (≈ 0.0569 µM) | 0.6 | 34 | 0.30 (≈ 0.19 µM) | 0.31 (≈ 0.196 µM) | 0.30 (≈ 0.19 µM) | 2.0 (≈ 1.27 µM)
8 | CC[C@H](C)[C@@H]1NC(=O)[C@H](Cc2c[nH]c3ccccc23)NC(=O)[C@H]([C@@H](C)O)NC(=O)[C@@H]2CCCN2C(=O)[C@H]2CCCN2C(=O)[C@H](CCN)NC(=O)[C@H](C)NC(=O)[C@H](CCN)NC(=O)[C@H](CCN)NC(=O)[C@H](Cc2c[nH]c3ccccc23)NC(=O)[C@H](CCCCN)NC(=O)[C@H](CCN)NC(=O)[C@H](CCCCN)NC(=O)[C@H](CCN)NC1=O [Example 26] (cyclo(TWI[Dab]K[Dab]KW[Dab][Dab]A[Dab][dP]P)) | 0.8 | 0.08 (≈ 0.0497 µM) | 0.22 | 50 | 0.13 (≈ 0.0808 µM) | 0.18 (≈ 0.112 µM) | 0.30 (≈ 0.186 µM) | 0.40 (≈ 0.249 µM)
